# Test results taken from ChEMBL document CHEMBL5614463, “Discovery of Imidazo[1,2-a]pyrazine Derivatives as Potent ENPP1 Inhibitors” (J Med Chem, 2024).
# Key:
# [1] = molecular target: T1, Ectonucleotide pyrophosphatase/phosphodiesterase family member 3 (Homo sapiens, UniProt O14638); assay: Inhibition of recombinant human ENPP3 using p-Nph-5'-TMP as substrate by absorbance based analysis
# T1 sequence (O14638 whole entry): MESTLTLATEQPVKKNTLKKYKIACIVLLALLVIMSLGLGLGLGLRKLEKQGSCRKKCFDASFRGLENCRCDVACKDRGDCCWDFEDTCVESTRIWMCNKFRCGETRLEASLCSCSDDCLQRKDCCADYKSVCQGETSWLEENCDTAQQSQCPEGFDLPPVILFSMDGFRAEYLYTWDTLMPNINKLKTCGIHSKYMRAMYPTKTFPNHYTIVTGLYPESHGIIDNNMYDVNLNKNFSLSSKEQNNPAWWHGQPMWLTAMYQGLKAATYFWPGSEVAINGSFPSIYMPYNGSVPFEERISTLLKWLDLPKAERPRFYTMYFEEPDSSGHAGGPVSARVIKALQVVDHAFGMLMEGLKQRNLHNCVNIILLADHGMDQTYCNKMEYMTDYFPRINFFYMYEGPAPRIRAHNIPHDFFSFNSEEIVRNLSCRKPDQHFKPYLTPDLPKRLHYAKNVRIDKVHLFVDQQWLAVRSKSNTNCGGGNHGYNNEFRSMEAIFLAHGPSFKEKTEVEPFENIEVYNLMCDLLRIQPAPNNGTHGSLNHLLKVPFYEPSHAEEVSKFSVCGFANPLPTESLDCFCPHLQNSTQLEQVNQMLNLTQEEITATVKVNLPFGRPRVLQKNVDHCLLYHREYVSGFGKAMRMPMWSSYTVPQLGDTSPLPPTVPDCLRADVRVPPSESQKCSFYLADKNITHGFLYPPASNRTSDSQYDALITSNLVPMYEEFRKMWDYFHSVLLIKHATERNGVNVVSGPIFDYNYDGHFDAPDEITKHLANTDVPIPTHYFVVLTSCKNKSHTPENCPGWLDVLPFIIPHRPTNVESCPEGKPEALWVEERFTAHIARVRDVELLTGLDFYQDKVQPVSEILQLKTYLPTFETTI
# Autotaxin = Autotaxin (Mus musculus, UniProt Q9R1E6); assay: Inhibition of N-terminal recombinant mouse ENPP2 […] extracted from HEK293F cells using p-Nph-5'-TMP as substrate by absorbance based analysis; type: cell-free
IC50 [1] [nM],IC50 (Autotaxin) [nM],Compound
2520,> 10000,COc1cccc(F)c1-c1nc(C(=O)Nc2cc(F)ccc2N2CCC(NS(N)(=O)=O)CC2)cn2ccnc12
1270,> 10000,COc1ccc2c(-c3ccc(CNS(N)(=O)=O)cc3)ccnc2c1
